Data published in patent US11549123B2, “Plant EPSP synthases and methods of use” (PIONEER HI-BRED INTERNATIONAL, INC., priority 2015, dated 2023).

Experiments:
Type in all cases: biochemical
[1] = molecular target: Sorghum halepense EPSPS, native, SEQ ID NO:8 (Sorghum halepense, UniProt H6T5X2); experiment: EPSPS substrate saturation kinetics, native sorghum
Procedure: EPSPS activity was determined by quantifying the phosphate generated from the EPSPS reaction. Release of inorganic phosphate was coupled to reaction with 2-amino-6-mercapto-7-methylpurine ribonucleoside, catalyzed by purine-nucleoside phosphorylase (M R Webb, Proc. Natl. Acad. Sci. 89:4884-4887, 1992). The absorbance change that occurs was monitored at 360 nm, where the extinction is 11,200 M^−1 cm^−1, with a Spectramax plate reader (Molecular Devices). To determine kinetic parameters, the varied substrate was present at seven concentrations (the eighth being the blank, containing no substrate) ranging from 4 to 400 uM and the unvaried substrate present at saturation. […] Reactions were monitored with a Spectramax plate reader. […] KI was then calculated from the following form of the Michaelis-Menten equation for competitive inhibition: KI=KM[I]/(KM app−KM) KM approximates the dissociation constant of the enzyme-substrate complex while kcat is the rate of conversion of substrate to product when the substrate concentration is saturating. kcat/KM is a widely accepted parameter for catalytic efficiency when substrate concentration is low (˜KM). […] The parameter kcat/KM×KI is used to quantify both catalytic efficiency and insensitivity and thus the overall fitness of the enzyme. […]

[2] = molecular target: T1, Zea mays EPSPS variant Zm-H6 (868-H6) with V87T (H6-V87T) (Zea mays, UniProt O24566, A1R/A3W/A415G/A71Q/D401G/E301S/E390G/G101A/I207L/K83R/L97C/T278A/T360S/T440Q/V437R/V86T); experiment: Substrate saturation kinetic analysis with glyphosate, H6-V87T
T1 construct: 868-H6 plus V87T; E. coli BL21(DE3), Ni-NTA purified
T1 sequence (O24566 with tags, fused parts or gaps A1R/A3W/A71Q/K83R/V86T/L97C/G101A/I207L/T278A/E301S/T360S/E390G/D401G/A415G/V437R/T440Q): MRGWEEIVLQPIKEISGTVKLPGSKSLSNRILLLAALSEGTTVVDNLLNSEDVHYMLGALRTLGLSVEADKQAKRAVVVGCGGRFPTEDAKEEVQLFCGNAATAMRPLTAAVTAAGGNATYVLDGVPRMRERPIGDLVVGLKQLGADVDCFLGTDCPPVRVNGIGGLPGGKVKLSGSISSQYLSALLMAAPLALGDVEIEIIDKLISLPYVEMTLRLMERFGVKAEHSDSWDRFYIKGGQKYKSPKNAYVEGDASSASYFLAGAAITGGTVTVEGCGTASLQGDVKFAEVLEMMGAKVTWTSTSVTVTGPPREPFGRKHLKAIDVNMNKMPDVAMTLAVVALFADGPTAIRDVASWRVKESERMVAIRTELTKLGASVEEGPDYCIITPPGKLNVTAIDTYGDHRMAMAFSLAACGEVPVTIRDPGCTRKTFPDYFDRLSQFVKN

[3] = molecular target: EPSPS enzyme comprising 103I, 107S, and 445G (Zea mays, UniProt O24566, N444G/P106S/T102I); experiment: kcat/KM*KI of EPSPS comprising 103I, 107S, 445G; conditions: glyphosate as inhibitor
Description: The EPSPS polypeptides and active variants and fragments thereof disclosed herein may have improved catalytic capacity in the presence of glyphosate when compared to previously identified EPSPS polypeptides. The parameter that best indicates the fitness of this trait in vivo is kcat/KM*KI. The EPSPS polypeptides disclosed herein can have an increased kcat/KM*KI, when compared to previously known EPSPS enzymes. By “increase” is intended any statistically significant increase when compared to an appropriate control. In some embodiments, an appropriate control is a previously known EPSPS sequence, such as that set forth in SEQ ID NO:2 (maize), SEQ ID NO:7 (rice), SEQ ID NO:8 (sorghum), SEQ ID NO:9 (sunflower), SEQ ID NO:13 (soybean), SEQ ID NO:14 (wheat), SEQ ID NO:15 (Brassica rapa), SEQ ID NO:16 (tomato), or SEQ ID NO:17 (potato). In some embodiments, the increase in the kcat/KM*KI when compared to SEQ ID NO:2, 7, 8 9, 13, 14, 15, 16, or 17 can comprise about a 150, 200, 250, 300, 350, 400, 450, 500, 550, 600, 650, 700, 750, 800-fold or greater increase. In still further embodiments, kcat/KM*KI may include, for example, a kcat/KM*KI of more than about 2000, 2500, 3000, 3500, 4000, 4500, 5000, 5500, 6000, 6500, 7000, 7500, 8000, 8500, 9000, 9500, 10000, or more.

Sequence of Sorghum halepense EPSPS, native, SEQ ID NO:8 (H6T5X2 entry or part of it): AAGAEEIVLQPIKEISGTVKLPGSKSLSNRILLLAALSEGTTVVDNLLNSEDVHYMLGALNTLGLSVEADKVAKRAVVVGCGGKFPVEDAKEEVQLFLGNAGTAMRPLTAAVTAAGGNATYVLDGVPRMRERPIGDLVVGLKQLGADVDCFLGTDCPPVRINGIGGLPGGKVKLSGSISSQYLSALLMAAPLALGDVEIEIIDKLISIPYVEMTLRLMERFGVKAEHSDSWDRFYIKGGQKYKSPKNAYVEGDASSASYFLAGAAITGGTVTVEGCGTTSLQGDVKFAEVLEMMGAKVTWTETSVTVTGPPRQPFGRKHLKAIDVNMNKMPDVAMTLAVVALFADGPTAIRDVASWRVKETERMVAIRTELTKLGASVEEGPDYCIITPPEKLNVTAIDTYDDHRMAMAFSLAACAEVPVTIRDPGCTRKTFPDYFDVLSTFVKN
Sequence of EPSPS enzyme comprising 103I, 107S, and 445G (O24566 entry or part of it T102I/P106S/N444G): as the sequence (H6T5X2 entry or part of it) above, with A1M, N61R, V72A, T103I, P107S, I161V, Q313E, N445G counted along it

O=C(O)CNCP(=O)(O)O [glyphosate, N-phosphonomethylglycine]
Ki [1]: 0.2 µM | (kcat/KM)*KI ([1]; PEP as substrate, glyphosate as inhibitor): 33 | Ki [2]: 348 µM | (kcat/KM)*KI ([2]; substrate saturation, H6-V87T): 3280 | (kcat/KM)*KI [3]: 2254
